Legend:
Fusarium culmorum = assay: In vitro test Fusarium culmorum (foot rot of cereals), radial growth on Potato Dextrose Agar; assay type: cell-based; conditions: 300 ppm, agar plate, 25° C., seven days
Experimental: Fusarium culmorum (Foot Rot of Cereals):
(§1) Compounds were dissolved in 0.3% DMSO and then added to Potato Dextrose Agar medium just prior to dispensing it into petri dishes. 5 mL medium with compound in the desired concentration was dispensed into 60 mm sterile Petri-plates. After solidification each plate was seeded with 5 mm size mycelial disc taken form periphery of actively growing virulent culture plate. Plates were incubated in growth chambers at 25° C. temperature and 60% relative humidity for seven days and radial growth was measured.

Bortytis cinera = assay: Greenhouse Bortytis cinera test in tomato, preventive; assay type: in vivo; conditions: Solanum lycopersicum, preventive spray on tomato plants, inoculated one day after treatment with Bortytis cinera, read-out: control compared to the untreated check
Experimental: Bortytis cinera Test in Tomato
Compounds were dissolved in 2% DMSO/Acetone and then mixed with water to calibrated spray volume of 50 mL. This 50 mL spray solution was poured into the spray bottles for further applications.
(§2) To test the preventive activity of compounds, healthy young tomato plants raised in the greenhouse were sprayed with active compound preparation at the stated application rates inside the spray cabinets using hallowcone nozzles. One day after treatment, the plants were inoculated with spore suspension (2% Malt) containing 1.2×10^6 Bortytis cinera inoculum. The inoculated plants were then kept in greenhouse chamber at 18-20° C. temperature and 90-100% relative humidity for disease expression.
(§3) A visual assessment of compound's performance was carried by rating the disease severity (0-100% scale) on treated plants on 3, 7, 10 and 15 days after application. Efficacy (% control) of the compounds was calculated by comparing the disease rating in the treatment with untreated control. The sprayed plants were also assessed for compound's phytotoxic effects by recording symptoms like necrosis, chlorosis and stunting.

Alternaria solani = assay: In vitro test Alternaria solani (early blight of tomato/potato), radial growth on Potato Dextrose Agar; assay type: cell-based; conditions: 168 h, agar plate, 25° C., seven days, read-out: control compared to the untreated check
Experimental: as §1, with “Alternaria solani (early blight of tomato/potato): Compounds” for “Compounds”, “Petri” for “petri”

Phakopsora pachyrhizi = assay: Greenhouse Phakopsora pachyrhizi test in soybean, preventive; assay type: in vivo; conditions: preventive spray on soybean plants, inoculated one day after treatment with Phakopsora pachyrhizi, read-out: control compared to the untreated check
Experimental: Phakopsora pachyrhizi Test in Soybean
Compounds were dissolved in 2% DMSO/Acetone and then mixed with water to the calibrated spray volume of 50 mL and poured into the spray bottles for further applications.
as §2, with “soybean” for “tomato”, “suspension” for “suspension (2% Malt)”, “2.1×10^6 Phakopsora pachyrhizi” for “1.2×10^6 Bortytis cinera”, “25°” for “18-20°”, “90%” for “90-100%”
as §3, with “carried out” for “carried”, “with the one of the” for “with”, “plant compatibility” for “phytotoxic effects”

Rhizoctonia solani = assay: In vitro test Rhizoctonia solani (rice sheath blight/potato black scurf), radial growth on Potato Dextrose Agar; assay type: cell-based; conditions: 168 h, agar plate, 25° C., seven days, read-out: control compared to the untreated check
Experimental: Rhizoctonia solani (Rice Sheath Blight/Potato Black Scurf):
as §1, with “Petri” for “petri”

Pyricularia oryzae = assay: microbe, parasite or virus in culture; assay type: cell-based; conditions: 168 h, read-out: control compared to the untreated check
Septoria lycopersici = assay: In vitro test Septoria lycopersici (leaf spot of tomato), radial growth on Potato Dextrose Agar; assay type: cell-based; conditions: 168 h, agar plate, 25° C., seven days, read-out: control compared to the untreated check
Experimental: Septoria lycopersici (Leaf Spot of Tomato):
as §1, with “Petri” for “petri”, “70%” for “60%”

| Structure (SMILES) | control compared to the untreated check (Fusarium culmorum) [%] | pest or weed control at 500 ppm (Bortytis cinera) [%] | inhibition of growth at 300 ppm (Alternaria solani) [%] | pest or weed control at 500 ppm (Phakopsora pachyrhizi) [%] | inhibition of growth at 300 ppm (Rhizoctonia solani) [%] | inhibition of growth at 300 ppm (Pyricularia oryzae) [%] | inhibition of growth at 300 ppm (Septoria lycopersici) [%] |
| --- | --- | --- | --- | --- | --- | --- | --- |
| CCN(C)C=Nc1cc(C)c(N=S(C)(=O)c2ccccc2)cc1C (centres unmarked) [Compound 4] | 70 | – | – | – | – | – | – |
| CCN(C)C=Nc1cc(C)c(Oc2cccc(S(=O)(=NC(=O)C(F)(F)F)C(C)C)c2)cc1Cl (centres unmarked) [Compound 10] | 70 | – | – | – | – | – | – |
| CCN(C)C=Nc1cc(C)c(Oc2cccc(S(C)(=O)=NCc3ccccc3)c2)cc1Cl (centres unmarked) [Compound 21] | – | > 70 | > 70 | > 70 | > 70 | – | – |
| CCN=S(=O)(CCC(C)C)c1cccc(Oc2cc(Cl)c(N=CN(C)CC)cc2C)c1 (centres unmarked) [Compound 25] | 70 | – | > 70 | – | – | > 70 | – |
| CCN(C)C=Nc1cc(C)c(S(=O)(CC)=NC(=O)c2cccc(OC)c2)cc1Cl (centres unmarked) [Compound 50] | – | > 70 | > 70 | > 70 | > 70 | – | – |
| CCN(C)C=Nc1cc(C)c(N=S(C)(=O)c2cccc(OC)c2)cc1C (centres unmarked) [Compound 74] | – | > 70 | – | > 70 | – | > 70 | – |
| CCN(C)C=Nc1cc(C)c(N=S(=O)(CCC(C)C)c2cccc(OC)c2)cc1C (centres unmarked) [Compound 76] | – | > 70 | – | > 70 | – | > 70 | – |
| CCN(C)C=Nc1cc(Br)c(N=S(=O)(CCC(C)C)c2cccc(OC)c2)nc1C (centres unmarked) [Compound 77] | – | > 70 | – | > 70 | – | – | – |
| CCN(C)C=Nc1cc(C)c(S(=O)(CC(C)C)=Nc2cc(C(F)(F)F)cc(C(F)(F)F)c2)cc1Cl (centres unmarked) [Compound 85] | – | > 70 | – | > 70 | – | – | – |
| CCN(C)C=Nc1cc(C)c(S(=O)(CC(C)C)=Nc2ccccc2)cc1Cl (centres unmarked) [Compound 86] | – | > 70 | – | > 70 | – | > 70 | – |
| CCN(C)C=Nc1cc(Br)c(N=S(C)(=O)c2cccc(OC)c2)nc1C (centres unmarked) [Compound 87] | – | > 70 | – | – | – | – | – |
| CCN(C)C=Nc1cc(C)c(S(C)(=O)=NCc2cccc(Cl)c2)cc1Cl (centres unmarked) [Compound 90] | – | – | > 70 | > 70 | > 70 | – | > 70 |
| CCN(C)C=Nc1cc(C)c(Oc2cccc(S(C)(=O)=NCC(F)(F)F)c2)cc1C (centres unmarked) [Compound 96] | – | > 70 | > 70 | – | > 70 | – | > 70 |
| CCN(C)C=Nc1cc(C)c(Oc2cccc(S(C)(=O)=Nc3ccccc3)c2)cc1C (centres unmarked) [Compound 98] | – | > 70 | – | – | – | – | – |
| CCN(C)C=Nc1cc(C)c(S(=O)(CC(C)C)=Nc2ccsc2)cc1Cl (centres unmarked) [Compound 114] | – | – | > 70 | > 70 | > 70 | – | > 70 |
| CCN(C)C=Nc1cc(C)c(Oc2ccc(S(C)(=O)=NCC3CC3)cc2)cc1Cl (centres unmarked) [Compound 127] | – | > 70 | > 70 | – | – | > 70 | – |
| CCN(C)C=Nc1cc(C)c(Cc2ccc(S(C)(=N)=O)cc2)cc1C (centres unmarked) [Compound 128] | – | > 70 | > 70 | – | – | > 70 | – |
| CCN=S(C)(=O)c1cccc(Nc2cc(C)c(N=CN(C)CC)cc2C)c1 (centres unmarked) [Compound 140] | 70 | – | > 70 | – | > 70 | – | > 70 |
| CCN(C)C=Nc1cc(C)c(Oc2cccc(S(=O)(=NCC3CC3)C(F)(F)F)c2)cc1Cl (centres unmarked) [Compound 144] | 70 | – | – | – | – | – | – |
| CCN(C)C=Nc1cc(C)c(Oc2ccccc2S(=N)(=O)C(F)(F)F)cc1Cl (centres unmarked) [Compound 147] | 70 | – | – | – | – | – | – |
| CCN=S(=O)(c1ccccc1Oc1cc(Cl)c(N=CN(C)CC)cc1C)C(F)(F)F (centres unmarked) [Compound 150] | 70 | – | > 70 | > 70 | > 70 | – | – |

Reference: patent publication US20200148635A1 (priority 2017, published 2020)
